Laboratory results published in PubChem BioAssay AID248 (DTP/NCI, 2004).
“And” between values parts separate entries of the source, which are not always exact repeats. Identical values can stand only once. Toxic doses and inconclusive results are not listed. Cut-off read from the data, not from the text of the source: active = T/C of 150% or more; inactive = T/C below 125%.

Tested on: L1210 leukemia ip in BDF1 mice, survival T/C
Test: NCI In Vivo Anticancer Drug Screen. Data for tumor model L1210 Leukemia (intraperitoneal) in B6D2F1 (BDF1) mice
Details: higher = longer survival
How it was run: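 In this screen, tumor-bearing mice given compound are compared to those given vehicle, and their survival values are reported as a treated-to-control quotient.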

[1] = endpoint: mean survival time, dose: 100.0 mg/kg/injection, schedule: Q04DX003 (ip), vehicle: Klucel (hydroxypropylcellulose) (HPC)
[2] = endpoint: mean survival time, dose: 100.0 mg/kg/injection, schedule: Q01DX009 (ip), vehicle: saline with Tween-80
[3] = endpoint: mean survival time, dose: 100.0 mg/kg/injection, schedule: Q04DX003 (ip), vehicle: saline with Tween-80
[4] = endpoint: mean survival time, dose: 200.0 mg/kg/injection, schedule: Q01DX009 (ip), vehicle: saline with Tween-80
[5] = endpoint: mean survival time, dose: 200.0 mg/kg/injection, schedule: Q04DX003 (ip), vehicle: saline with Tween-80
[6] = endpoint: mean survival time, dose: 400.0 mg/kg/injection, schedule: Q01DX009 (ip), vehicle: saline with Tween-80
[7] = endpoint: mean survival time, dose: 400.0 mg/kg/injection, schedule: Q04DX003 (ip), vehicle: saline with Tween-80
[8] = endpoint: mean survival time, dose: 100.0 mg/kg/injection, schedule: Q01DX001 (ip), vehicle: saline
[9] = endpoint: mean survival time, dose: 200.0 mg/kg/injection, schedule: Q01DX001 (ip), vehicle: saline
[10] = endpoint: mean survival time, dose: 400.0 mg/kg/injection, schedule: Q01DX001 (ip), vehicle: saline

Measured: T/C

O=S(=O)(Nc1ccccc1)c1ccc(C2CC3(Cl)C(Cl)=C(Cl)C2(Cl)C3(Cl)Cl)cc1 (centres undefined)
inactive: endpoint: mean survival time, dose: 29.0 mg/kg/injection, schedule: Q01DX015 (ip), vehicle: carboxymethylcellulose (CMC) 97 % of control | endpoint: mean survival time, dose: 44.0 mg/kg/injection, schedule: Q01DX015 (ip), vehicle: carboxymethylcellulose (CMC) 104 % of control | endpoint: mean survival time, dose: 66.0 mg/kg/injection, schedule: Q01DX015 (ip), vehicle: carboxymethylcellulose (CMC) 95 % of control | endpoint: mean survival time, dose: 88.8 mg/kg/injection, schedule: Q01DX001 (ip), vehicle: carboxymethylcellulose (CMC) 96 % of control and 100 % of control | endpoint: mean survival time, dose: 100.0 mg/kg/injection, schedule: Q01DX001 (ip), vehicle: carboxymethylcellulose (CMC) 110 % of control | endpoint: mean survival time, dose: 100.0 mg/kg/injection, schedule: Q01DX009 (ip), vehicle: saline sonified 86 % of control | endpoint: mean survival time, dose: 100.0 mg/kg/injection, schedule: Q01DX015 (ip), vehicle: carboxymethylcellulose (CMC) 92 % of control | [1] 100 % of control | endpoint: mean survival time, dose: 133.0 mg/kg/injection, schedule: Q01DX001 (ip), vehicle: carboxymethylcellulose (CMC) 107 % of control | endpoint: mean survival time, dose: 200.0 mg/kg/injection, schedule: Q01DX001 (ip), vehicle: carboxymethylcellulose (CMC) 96 % of control and 100 % of control | endpoint: mean survival time, dose: 200.0 mg/kg/injection, schedule: Q01DX015 (ip), vehicle: carboxymethylcellulose (CMC) 93 % of control | endpoint: mean survival time, dose: 200.0 mg/kg/injection, schedule: Q04DX003 (ip), vehicle: Klucel (hydroxypropylcellulose) (HPC) 97 % of control | endpoint: mean survival time, dose: 300.0 mg/kg/injection, schedule: Q01DX001 (ip), vehicle: carboxymethylcellulose (CMC) 100 % of control and 109 % of control | endpoint: mean survival time, dose: 400.0 mg/kg/injection, schedule: Q01DX001 (ip), vehicle: carboxymethylcellulose (CMC) 105 % of control | endpoint: mean survival time, dose: 400.0 mg/kg/injection, schedule: Q01DX009 (ip), vehicle: saline sonified 98 % of control | endpoint: mean survival time, dose: 400.0 mg/kg/injection, schedule: Q01DX015 (ip), vehicle: carboxymethylcellulose (CMC) 89 % of control | endpoint: mean survival time, dose: 400.0 mg/kg/injection, schedule: Q04DX003 (ip), vehicle: Klucel (hydroxypropylcellulose) (HPC) 92 % of control

C=CCCCCCCCCC(=O)Cl
inactive: [2] 89 % of control | [3] 97 % of control | [4] 88 % of control | [5] 101 % of control | [6] 98 % of control | [7] 95 % of control

Cc1ccccc1OC(=O)Nc1ccc(C(=O)O)c(O)c1
inactive: endpoint: mean survival time, dose: 100.0 mg/kg/injection, schedule: Q01DX001 (ip), vehicle: saline with Tween-80 93 % of control | [2] 94 % of control | endpoint: mean survival time, dose: 200.0 mg/kg/injection, schedule: Q01DX001 (ip), vehicle: saline with Tween-80 96 % of control | [4] 97 % of control | endpoint: mean survival time, dose: 400.0 mg/kg/injection, schedule: Q01DX001 (ip), vehicle: saline with Tween-80 93 % of control

O=C1NC(=O)C(c2cccc(Cl)c2)N1 (centres undefined)
inactive: endpoint: mean survival time, dose: 50.0 mg/kg/injection, schedule: Q01DX001 (ip), vehicle: saline 106 % of control | [8] 93 % of control | [9] 98 % of control | [10] 104 % of control

CC1OC1C(=O)Sc1ccccc1 (centres undefined)
inactive: endpoint: mean survival time, dose: 25.0 mg/kg/injection, schedule: Q04DX003 (ip), vehicle: Klucel (hydroxypropylcellulose) (HPC) 100 % of control | endpoint: mean survival time, dose: 50.0 mg/kg/injection, schedule: Q04DX003 (ip), vehicle: Klucel (hydroxypropylcellulose) (HPC) 103 % of control | [1] 93 % of control and 86 % of control

OC1C2CC3C(C2)C13 (centres undefined)
inactive: endpoint: mean survival time, dose: 100.0 mg/kg/injection, schedule: Q01DX009 (ip), vehicle: saline 102 % of control | endpoint: mean survival time, dose: 200.0 mg/kg/injection, schedule: Q01DX009 (ip), vehicle: saline 96 % of control | endpoint: mean survival time, dose: 400.0 mg/kg/injection, schedule: Q01DX009 (ip), vehicle: saline 98 % of control

CC(=O)NC(CS)C(=O)O (centres undefined)
inactive: [8] 96 % of control | [9] 95 % of control | [10] 98 % of control | endpoint: median survival time, dose: 250.0 mg/kg/injection, schedule: Q01DX001 (ip), vehicle: saline 100 % of control | endpoint: median survival time, dose: 500.0 mg/kg/injection, schedule: Q01DX001 (ip), vehicle: none 101 % of control | endpoint: median survival time, dose: 750.0 mg/kg/injection, schedule: Q01DX001 (ip), vehicle: none 99 % of control | endpoint: median survival time, dose: 750.0 mg/kg/injection, schedule: Q01DX001 (ip), vehicle: saline 100 % of control | endpoint: median survival time, dose: 1000.0 mg/kg/injection, schedule: Q01DX001 (ip), vehicle: none 97 % of control and 106 % of control | endpoint: median survival time, dose: 1000.0 mg/kg/injection, schedule: Q01DX009 (ip), vehicle: saline 93 % of control | endpoint: median survival time, dose: 1000.0 mg/kg/injection, schedule: Q01DX014 (ip), vehicle: saline 100 % of control and 102 % of control | endpoint: median survival time, dose: 1000.0 mg/kg/injection, schedule: Q07DX003 (ip), vehicle: saline 94 % of control | endpoint: median survival time, dose: 1500.0 mg/kg/injection, schedule: Q01DX001 (ip), vehicle: none 113 % of control | endpoint: median survival time, dose: 1500.0 mg/kg/injection, schedule: Q01DX009 (ip), vehicle: saline 96 % of control | endpoint: median survival time, dose: 1500.0 mg/kg/injection, schedule: Q01DX014 (ip), vehicle: saline 102 % of control and 105 % of control | endpoint: median survival time, dose: 1500.0 mg/kg/injection, schedule: Q07DX003 (ip), vehicle: saline 94 % of control | endpoint: median survival time, dose: 2000.0 mg/kg/injection, schedule: Q01DX001 (ip), vehicle: saline 100 % of control

Clc1ccc(C(=Cc2ccccc2Br)c2ccc(Cl)cc2)cc1
inactive: [2] 100 % of control | [3] 98 % of control | [4] 100 % of control | [5] 98 % of control | [6] 96 % of control | [7] 101 % of control

CSc1nc(F)nc2c1ncn2C1OC(CO)C(O)C1O (centres undefined)
inactive: [8] 88 % of control | [9] 100 % of control

CCN(CC)CCCC(C)Nc1cc(C)nc(Nc2nc3cc(Cl)c(Cl)cc3[nH]2)n1 (centres undefined)
inactive: endpoint: mean survival time, dose: 5.0 mg/kg/injection, schedule: Q01DX009 (ip), vehicle: saline with Tween-80 96 % of control | endpoint: mean survival time, dose: 10.0 mg/kg/injection, schedule: Q01DX009 (ip), vehicle: saline with Tween-80 93 % of control

c1ccc(CCC[P+](c2ccccc2)(c2ccccc2)c2ccccc2)cc1
inactive: endpoint: mean survival time, dose: 2.5 mg/kg/injection, schedule: Q01DX009 (ip), vehicle: saline 113 % of control | endpoint: mean survival time, dose: 5.0 mg/kg/injection, schedule: Q01DX001 (ip), vehicle: saline 101 % of control | endpoint: mean survival time, dose: 5.0 mg/kg/injection, schedule: Q01DX009 (ip), vehicle: saline 118 % of control | endpoint: mean survival time, dose: 10.0 mg/kg/injection, schedule: Q01DX001 (ip), vehicle: saline 95 % of control | endpoint: mean survival time, dose: 10.0 mg/kg/injection, schedule: Q01DX009 (ip), vehicle: saline 102 % of control | endpoint: mean survival time, dose: 20.0 mg/kg/injection, schedule: Q01DX001 (ip), vehicle: saline 117 % of control | endpoint: mean survival time, dose: 40.0 mg/kg/injection, schedule: Q01DX001 (ip), vehicle: saline 117 % of control

Cc1ccc(NC(=O)NCCCl)c2c1CCC2
inactive: endpoint: mean survival time, dose: 100.0 mg/kg/injection, schedule: Q01DX001 (ip), vehicle: Klucel (hydroxypropylcellulose) (HPC) 95 % of control | endpoint: mean survival time, dose: 200.0 mg/kg/injection, schedule: Q01DX001 (ip), vehicle: Klucel (hydroxypropylcellulose) (HPC) 92 % of control | endpoint: mean survival time, dose: 400.0 mg/kg/injection, schedule: Q01DX001 (ip), vehicle: Klucel (hydroxypropylcellulose) (HPC) 96 % of control
